These are literature values, as cited in US20220142893A1, “THE PROCESS OF DYEING KERATINOUS MATERIAL COMPRISING THE USE OF AN ORGANOSILICON COMPOUND, TWO COLOR-IMPARTING COMPOUNDS AND A FILM-FORMING POLYMER” (Henkel AG & Co. KGaA, priority 2019, published 2022).

The conditions of the data set: 25° C.

For the molecule `O=S(=O)([O-])c1ccc(N=Nc2c(O)ccc3ccccc23)cc1.[Na+]` [Acid Orange 7, sodium salt of 4-[(2-hydroxy-1-naphthyl)azo]benzene sulphonate], the solubility in water result was “more than 7 g/L”.

Consider `Nc1cc(S(=O)(=O)[O-])cc2cc(S(=O)(=O)[O-])c(N=Nc3ccccc3)c(O)c12.[Na+].[Na+]` [Acid Red 33, disodium salt of 5-amino-4-hydroxy-3-(phenylazo)-naphthalene-2,7-disulphonate], for which the solubility in water is 2500 µg/mL.

Take `O=C([O-])c1c(Cl)c(Cl)c(Cl)c(Cl)c1-c1c2c(Br)cc(=O)c(Br)c-2oc2c(Br)c(O)cc(Br)c12.O=C([O-])c1c(Cl)c(Cl)c(Cl)c(Cl)c1-c1c2c(Br)cc(=O)c(Br)c-2oc2c(Br)c(O)cc(Br)c12.[Na+].[Na+]` [Acid Red 92, disodium salt of 3,4,5,6-tetrachloro-2-(1,4,5,8-tetrabromo-6-hydroxy-3-oxoxanthen-9-yl)benzoic acid]: the solubility in water result is “greater than 10 g/L”.

As for `O=C([O-])C1=NN(c2ccc(S(=O)(=O)[O-])cc2)C(=O)C1N=Nc1ccc(S(=O)(=O)[O-])cc1.[Na+].[Na+].[Na+]` (stereo not shown) [Acid Yellow 23, trisodium salt of 4,5-dihydro-5-oxo-1-(4-sulfophenyl)-4-((4-sulfophenyl)azo)-1H-pyrazole-3-carboxylic acid], the “solubility in water (in words)” value is “highly soluble”.
